These results are taken from patent publication US20170165317A1, “METHOD FOR MITIGATING OR ALLEVIATING SYNAPTIC AND COGNITIVE DEFICITS” (Trustees of Dartmouth College, priority 2013, published 2017).

The structures appear in SMILES notation.

One assay concerns the target T1, Aβ42 (Homo sapiens, UniProt P05067).
T1 construct: Lyophilized Aβ42 peptide was purchased from Keck Facility at Yale University; purchased Keck Facility at Yale University; host or cells: synthetic peptide
The assay can be described thus: Thioflavin-T fluorescence assay of Aβ42 aggregation. The assay is classed as biochemical. Particulars: 50 nM VO-OHpic or 15 nM bPV(HOpic), 37° C. How it is done: Freshly prepared Aβ42 was prepared as described for protofibrillar Aβ42. The Thioflavin-T (ThT) assay was carried out at 37° C., within a dark chamber in a 96-well plate. Each well contained 100 ng/μL of Aβ42, 20 μM ThT and 50 nM VO-OHpic or 15 nM bPV(HOpic). Fluorescence (λex=450 nm; λem=485 nm) was followed over time in a FLUOSTAR OPTIMA (BMG LabTech) fluorescence spectrophotometer. Samples were run in triplicates. […] Thus, the observed rescue of basal synaptic transmission, LTP and cognition, with VO-OHpic was not likely due to an altered aggregation state of Aβ upon PTEN inhibition.

The test system of a further assay is PTEN. The assay can be described thus: phospho-Akt and phospho-Tyr levels in acute hippocampal slices. In kind it is cell-based, mice.
Another assay deals with CA1 individual neurons. The assay can be described thus: Whole-cell LTP (pairing protocol) in CA1 neurons of organotypic slices with APPswe/lnd-EGFP expression. In kind it is cell-based, rat. Particulars: VO-OHpic 26-48 hours. How it is done:
The different versions of APP (APPwt, APPswe/lnd APPMV) and EGFP were co-expressed using an internal ribosomal entry site (IRES) construct. The EGFP-tagged versions of PTEN have been described (Jurado, et al. (2010) EMBO J. 29:2827-2840). All constructs were prepared in pSinRep5 for expression using Sindbis virus. Recombinant proteins were expressed in hippocampal CA1 pyramidal neurons from organotypic slice cultures. Organotypic hippocampal slices were prepared from postnatal day 5-7 rats and cultured during 6-8 days.
The external solution (aCSF) contained 119 mM NaCl, 2.5 mM KCl, 1 mM NaH2PO4, 11 mM glucose, 26 mM NaHCO3, 4 mM MgCl2, 4 mM CaCl2, 100 μM picrotoxin and 2 μM 2-chloroadenosine, pH 7.4, and was gassed with 95% O2 and 5% CO2. Patch recording pipettes (4-7 MO) were filled with internal solution containing 115 mM CsMeSO3, 20 mM CsCl, 10 mM HEPES, 2.5 mM MgCl2, 4 mM Na2-ATP, 0.4 mM Na-GTP, 10 mM sodium phosphocreatine and 0.6 mM EGTA, pH 7.25. Bipolar stimulating electrodes were placed over Schaffer collateral fibers between 250 and 300 μm from the CA1 recorded cells, and synaptic responses were evoked with single voltage pulses (200 μs, up to 30 V). Responses were collected at −60 mV and +40 mV and averaged over 50-100 trials. LTP was induced using a pairing protocol by stimulating Schaffer collateral fibers at 3 Hz for 1.5 minutes while depolarizing the postsynaptic cell at 0 mV. All electrophysiological data were collected with pCLAMP software (Molecular Devices). Immunohistochemistry For the immunostaining protocol, hippocampal slice cultures were fixed with 4% paraformaldehyde for 24 hours washed in PBS and blocked with 5% horse serum for 2 hours. Sections were then incubated for 48 hours at 4° C. with primary antibody. […]
However, this form of depression may in principle be due to Aβ exposure, to intracellular fragments derived from APP processing, or a combination thereof. To test the role of PTEN specifically in the effects of neuron-secreted Aβ, synaptic dysfunctions were monitored in untransfected cells neighboring APPswe/lnd-expressing neurons. […]

T1 sequence (P05067 672-713): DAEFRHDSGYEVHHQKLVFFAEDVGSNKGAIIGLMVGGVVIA

On to `O=C(O)c1ncccc1O.O=C(O)c1ncccc1O.[O]=[V][O-]` [VO-OHpic], for which, on Aβ42, the “Aβ42 aggregation (ThT fluorescence)” value was “does not alter Aβ42 aggregation”. Further, in the assay on PTEN, the “phospho-Akt (PIP3 downstream effector)” value is given as “upregulation” and the “phospho-Tyr levels (specificity versus Tyr phosphatases)” value is on record as “lack of effect”. Besides, the “LTP potentiation, APPswe/lnd-EGFP infected cells” value with CA1 individual neurons (P=0.01) came to 220%. For the same compound, the “LTP potentiation, uninfected cells exposed to Aβ” value in the assay on CA1 individual neurons (uninfected neurons adjacent to infected cells, P=0.0006) was 339%. For the same compound, the “magnitude of LTP in control slices” value in the assay with CA1 individual neurons (slices not exposed to APPswe/lnd-EGFP virus) is “did not affect the magnitude of LTP”.
